Publication PMC4492822 (EMBO Molecular Medicine, 2015)

What was measured:
[1] = tested on: preclinical breast and sarcoma models; assay: Single agent activity in preclinical breast and sarcoma models; assay type: in vivo; conditions: authors' response to reviewers
Excerpt: EMBO Molecular Medicine Peer Review Process File - EMM-2014-04368 levels vary based on the datasets analyzed. In addition, as far as DDX3 protein levels are concerned, […]
making it difficult to interpret the gene expression datasets as an absolute unit to that of the protein […]
3) A more detailed description of expression in other normal tissues would help anticipate toxicities.
Response: It is difficult to ascertain if the levels of DDX3 in the normal cells will directly correlate to toxicities levels following RK-33 treatment. It is possible that normal cells are not dependent on DDX3 for its cellular biogenesis as compared to the cancer cells. This could be one of the reasons why there is no observable toxicity within our experimental setting. Also, as a first step to determine toxicity for a novel drug, it is essential to test the effect in small animals like mouse or rat. Based on these criteria, we observed no toxicity in mouse at higher levels than the therapeutic dose to kill […]
impart any visible side effects.
4) Legends for Figure 2 are mislabeled.
Response: We thank the reviewer for pointing this out. We have rectified this in the revised […]
5) What is the subsrate in the helicase assay. Have the authors explored RNA secondary (e.g. G-quadruplex or hairpin structures)? […]
10) Figure 7. Please add a quantification of cell death. […]

H196 = assay: Annexin V / PI flow cytometry, 72 h; assay type: cell-based
Procedure: (§1) Histograms depicting early apoptosis (Annexin V positive) and late apoptosis (PI positive) in cells treated with the indicated amounts of RK-33. Cells were either treated with DMSO (controls) or IC50 and IC75 amounts of RK-33. After 72 hours incubation, cells were harvested and stained for Annexin V and PI and analyzed by flow cytometry.

H358 = assay: Annexin V / PI flow cytometry, 72 h; assay type: cell-based
Procedure: as §1

H23 = assay: Annexin V / PI flow cytometry, 72 h; assay type: cell-based
Procedure: as §1

H1299 = assay: Annexin V / PI flow cytometry, 72 h; assay type: cell-based
Procedure: as §1

H460 = assay: Annexin V / PI flow cytometry, 72 h; assay type: cell-based
Procedure: as §1

H1299-DR-GFP cells = assay: Homologous recombination reporter assay; assay type: cell-based
Procedure: NHEJ was assessed by the functional reporter system H1299-EJ, provided by E Dikomey. […] When these sites are incised by I-SceI, the artificial start codon is removed creating a DSB. Repair of this DSB by NHEJ restores GFP expression, so that cells capable for NHEJ can be identified by their GFP fluorescence intensity (Kriegs et al, [2010]). H1299.EJ cells were plated in a 6-well plate (1 × 10^5 cell/well) and treated with 4–6 μM RK-33. The following day, cells were transfected (in duplicates) with 1–2 μg of pSceI or pEGFP construct using TransIT-LT1 (Mirus, Madison, WI, USA) in serum-free media (Opti-MEM, Invitrogen, Carlsbad, CA, USA). Media was replaced after 4–6 h with complete media. Subsequently, cells were harvested by trypsinization, washed in PBS, and resuspended in 0.5 ml PBS. NHEJ activity was measured on a FACScan I instrument and analyzed on FlowJo software. Recombination frequency was calculated as ((% pSceI − % negative control) / % pEGFP). H1299-DR-GFP cells, provided by RG Bristow, were used to measure homologous recombination similarly as described above (Chan et al, [2008]).

A549 cells = assay: 53BP1 and γH2AX foci after radiation (immunofluorescence); assay type: cell-based, human; conditions: 6 μM, 12 h before 2-Gy radiation
Procedure: A549 cells were allowed to attach overnight in chamber slides. For DDR experiments (Fig6A), cells were incubated with RK-33 for 12 h and then radiated with 2 Gy. After 0, 1, 6, and 24 h, cells were fixed and stained. Cells were fixed for 15 min in 4% formalin, washed with PBS, permeabilized (PBS containing 0.2% Triton X-100) for 5 min, and blocked for 30 min with 10% goat serum. […] Next, cells were washed with PBS and incubated with secondary antibodies, CY3 (1:200, goat anti-mouse, 115-165-071, Jackson Immuno Research) or Alexa fluor 488 (1:200, goat anti-rabbit, A11034, Invitrogen) for 1 h. Cells were washed, nuclei-stained with 4′,6-diamidino-2-phenylindole (DAPI), and cover-slipped. Photographs were taken with Nikon Eclipse 80i fluorescence microscope using a CoolSnap ES camera (Roper scientific, Sarasota, FL, USA).

H3255 cells = assay: Immunoblotting of MAPK pathway proteins; assay type: cell-based; conditions: 7.5 μM or 10 μM, 24 h
Procedure: Cell lysate was prepared with TB buffer method. For immunoblotting, ~25 μg protein was loaded on 10% SDS–PAGE gels. […] The blots were developed with clarity Western ECL (Bio-Rad, Hercules, CA, USA) and imaged with G:BOX Chemi XR5 (Syngene, Frederick, MD, USA).

[2] = 7.5 uM, lower line, first value
[3] = 7.5 uM, lower line, second value

For “diimidazo[4,5-d:4′,5′-f]-[1,3]diazepine [RK-33]”, the single agent activity [1] was “delayed tumor growth”, the “cells in gate of Annexin V/PI plot” value (H196; 3 uM, lower value of panel) was 43.3 and the “cells in gate of Annexin V/PI plot” value (H196; 3 uM, upper value of panel) was 52.7. The “cells in gate of Annexin V/PI plot” value (H196; 4.5 uM, lower value of panel) was 36.6, the “cells in gate of Annexin V/PI plot” value (H196; 4.5 uM, upper value of panel) was 60.9 and the “cells in gate of Annexin V/PI plot” value (H358; 11 uM, lower line, first value) was 26.6. The “cells in gate of Annexin V/PI plot” value (H358; 11 uM, lower line, second value) was 31.9, the “cells in gate of Annexin V/PI plot” value (H358; 11 uM, upper value of panel) was 34.9 and the “cells in gate of Annexin V/PI plot” value (H358; 16 uM, lower line, first value) was 26.8. For the same substance, the “cells in gate of Annexin V/PI plot” value (H358; 16 uM, lower line, second value) was 26.5, the “cells in gate of Annexin V/PI plot” value (H358; 16 uM, upper value of panel) was 40.8 and the “cells in gate of Annexin V/PI plot” value (H23; 5 uM, lower line, first value) was 30.3. For the same substance, the “cells in gate of Annexin V/PI plot” value (H23; 5 uM, lower line, second value) was 28.2, the “cells in gate of Annexin V/PI plot” value (H23; 5 uM, upper value of panel) was 39 and the “cells in gate of Annexin V/PI plot” value (H23; [2]) was 17.1. For the same substance, the “cells in gate of Annexin V/PI plot” value (H23; [3]) was 18.8, the “cells in gate of Annexin V/PI plot” value (H23; 7.5 uM, upper value of panel) was 60.4 and the “cells in gate of Annexin V/PI plot” value (H1299; [2]) was 40.4. For the same substance, the “cells in gate of Annexin V/PI plot” value (H1299; [3]) was 12.6, the “cells in gate of Annexin V/PI plot” value (H1299; 7.5 uM, upper value of panel) was 33.7 and the “cells in gate of Annexin V/PI plot” value (H1299; 13 uM, lower line, first value) was 36. The “cells in gate of Annexin V/PI plot” value (H1299; 13 uM, lower line, second value) was 7.3, the “cells in gate of Annexin V/PI plot” value (H1299; 13 uM, upper value of panel) was 41.5 and the “cells in gate of Annexin V/PI plot” value (H460; 6.5 uM, lower value of panel) was 62. The “cells in gate of Annexin V/PI plot” value (H460; 6.5 uM, upper value of panel) was 25.6, the “cells in gate of Annexin V/PI plot” value (H460; 9 uM, lower value of panel) was 50.1 and the “cells in gate of Annexin V/PI plot” value (H460; 9 uM, upper value of panel) was 34.7. The HR activity (H1299-DR-GFP cells) was “no changes in HR activity”, the “persistence of radiation-induced DNA damage (53BP1 and γ-H2AX foci)” value (A549 cells) was “DNA damage persisted well beyond 24 h” and the ERK1/2 phosphorylation (H3255 cells) was “increase of ERK1/2 phosphorylation”.
